Test results as given in paper PMC6837341, “Evolutionarily conserved susceptibility of the mitochondrial respiratory chain to SDHI pesticides and its consequence on the impact of SDHIs on human cultured cells” (PLoS ONE, 2019).

How the values were obtained:
[1] = molecular target: succinate cytochrome c reductase (SDH+CIII) (Homo sapiens, UniProt O14521+P21912+Q99643); assay: Malonate-sensitive succinate cytochrome c reductase (SCCR) activity, freeze-thawed HEK cells; format: biochemical; set-up: the pellets were permeabilized by two freeze-thaw cycles before enzyme assays; endogenous in cells; host or cells: HEK293, freeze-thawed cell pellets; settings: IC50 SCCR, no exogenous quinone, n ≥ 3
Protocol: (§1) The cells were grown in T75 flasks using 10 ml Dulbecco’s modified Eagle's minimal essential medium (DMEM) either containing 1 or 4.5 g/l glucose, 4 mM glutamine (glutamax; Gibco Thermo Fisher Scientific, MA), 2 mM pyruvate and 200 μM uridine (permissive medium, thereafter referred as GlucoMax) or lacking glucose, pyruvate and uridine but containing 4 mM glutamine (nonpermissive medium, thereafter referred as MitoMax; S1 Table). All media were supplemented with 10% fetal calf serum and 100 U/mL each penicillin and streptomycin. HEK293 human embryonic kidney cells were cultured in DMEM containing 4.5 g/L glucose, 4 mM glutamine, 10% fetal calf serum, 200 μM uridine, 2 mM pyruvate, and 100 U/mL each penicillin and streptomycin [9]. Cell pellets (1,500 g for 5 min) were kept frozen (-80°C), and for biochemical studies, the pellets were permeabilized by two freeze-thaw cycles before enzyme assays.
(§2) RC enzyme activities were spectrophotometrically measured using a pseudo-double-wavelength spectrophotometer (Cary 60, Agilent). Malonate-sensitive succinate quinone dichlorophenolindophenol (DCPIP) reductase (SQDR), as an indicator of the activity of the isolated SDH enzyme (isolated CII), and glycerol-3-phosphate quinone DCPIP reductase (GQDR), as a measure of the activity of the isolated glycerol-3-phosphate dehydrogenase (G3PDH), were assayed as previously described. To study the effect of SDHIs on the RC, we had to take into consideration the fact that these inhibitors act through binding to quinone-binding sites in the RC. Accordingly, we observed that the extent of the inhibitory effects of these substances varies with the addition of exogenous quinones (Fig 1). […] With this aim, we measured the malonate-sensitive succinate cytochrome c reductase (SDH+CIII), glycerol-3-phosphate cytochrome c reductase (G3PDH+CIII) and antimycin-sensitive quinol cytochrome c reductase (CIII) as previously described.
(§3) The effects of eight different SDHIs (up to 500 μM; S2 Fig) were determined on four different biological materials. Because IC50 are known to be affected by the actual absolute activity of the tested enzyme, these IC50 were quantified using similar levels of SDH enzyme activity during the assay. IC50 values were determined using the AAT Bioquest IC50 calculator tool (https://www.aatbio.com/tools/ic50-calculator).

[2] = molecular target: T1, glycerol-3-phosphate cytochrome c reductase (G3PDH+CIII) (Homo sapiens, UniProt P00156); assay: Glycerol-3-phosphate cytochrome c reductase (GCCR) activity, freeze-thawed HEK cells; format: biochemical
T1 construct: the pellets were permeabilized by two freeze-thaw cycles before enzyme assays; endogenous in cells; host or cells: HEK293, freeze-thawed cell pellets
Protocol: as §1, §2, §3

[3] = molecular target: T2, quinol cytochrome c reductase (CIII) (Homo sapiens, UniProt P00156); assay: Antimycin-sensitive quinol cytochrome c reductase (QCCR) activity, freeze-thawed HEK cells; format: biochemical
T2 construct: the pellets were permeabilized by two freeze-thaw cycles before enzyme assays; endogenous in cells; host or cells: HEK293, freeze-thawed cell pellets
Protocol: as §1, §2, §3

[4] = according to European regulations; ref European regulations; cited from earlier work

succinate cytochrome c reductase (SDH+CIII), sequence (P21912 29-280): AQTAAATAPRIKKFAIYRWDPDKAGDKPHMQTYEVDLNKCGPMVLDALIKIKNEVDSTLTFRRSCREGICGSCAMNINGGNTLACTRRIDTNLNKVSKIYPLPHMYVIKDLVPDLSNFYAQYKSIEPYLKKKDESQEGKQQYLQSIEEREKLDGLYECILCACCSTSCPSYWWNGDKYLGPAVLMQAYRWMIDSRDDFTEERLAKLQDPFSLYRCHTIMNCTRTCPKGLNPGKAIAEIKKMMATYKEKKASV
succinate cytochrome c reductase (SDH+CIII), sequence (Q99643 30-169): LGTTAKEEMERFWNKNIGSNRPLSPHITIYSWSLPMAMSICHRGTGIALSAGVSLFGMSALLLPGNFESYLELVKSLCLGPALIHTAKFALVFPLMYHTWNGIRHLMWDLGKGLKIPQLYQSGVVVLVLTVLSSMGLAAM
succinate cytochrome c reductase (SDH+CIII), sequence (O14521 57-159): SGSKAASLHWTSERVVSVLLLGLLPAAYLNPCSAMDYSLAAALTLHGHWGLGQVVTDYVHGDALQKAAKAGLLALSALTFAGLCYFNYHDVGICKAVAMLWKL
succinate cytochrome c reductase (SDH+CIII), sequence (P31040 43-664 partner): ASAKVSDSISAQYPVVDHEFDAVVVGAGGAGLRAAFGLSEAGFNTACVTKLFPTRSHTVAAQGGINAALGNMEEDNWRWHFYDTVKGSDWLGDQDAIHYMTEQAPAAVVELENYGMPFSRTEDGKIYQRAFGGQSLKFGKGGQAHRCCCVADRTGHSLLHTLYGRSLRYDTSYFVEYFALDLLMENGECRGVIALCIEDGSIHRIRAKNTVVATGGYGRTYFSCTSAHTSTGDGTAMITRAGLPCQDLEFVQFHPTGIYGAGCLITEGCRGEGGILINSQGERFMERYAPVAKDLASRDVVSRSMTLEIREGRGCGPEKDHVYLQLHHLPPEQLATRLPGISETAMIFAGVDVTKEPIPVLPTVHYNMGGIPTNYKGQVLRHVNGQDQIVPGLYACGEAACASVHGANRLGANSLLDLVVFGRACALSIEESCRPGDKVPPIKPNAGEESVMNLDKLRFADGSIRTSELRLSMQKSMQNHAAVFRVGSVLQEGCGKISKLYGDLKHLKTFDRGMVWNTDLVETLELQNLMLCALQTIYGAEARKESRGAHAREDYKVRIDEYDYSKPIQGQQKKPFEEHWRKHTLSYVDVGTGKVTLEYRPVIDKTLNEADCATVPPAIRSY

O=C(NCCc1ncc(C(F)(F)F)cc1Cl)c1ccccc1C(F)(F)F [Fluopyram, fluopyram]
IC50 [1]: 160 µM | IC50 [2]: > 500 µM | IC50 [3]: > 500 µM | ADI (Acceptable Daily Intake) [4]: 0.012 mg/kg/day
